Measured values published in patent US20150125406A1, “TOPICAL SKIN CARE COMPOSITION” (JAFER LIMITED, priority 2012, published 2015).

Key:
Format in all cases: cell-based
B16 melanocytes [1] = assay: Cell numbers by sulforhodamine B method, Study II; details: 20X dilution of dilute stock solutions; 72 hours
Protocol: (§1) Cells (B16 melanocytes) were plated in phenol-free Dulbecco's Modified Eagle's Medium (DMEM) supplemented with 5% fetal bovine serum (FBS) at 10,000 cells/well. After 24 hours, test material was added and the cells were incubated with the test material for 48 hours. The melanin was quantified by instrumentally measuring absorbance with a BIORAD microplate spectrophotometer 3550-UV at 490 nanometers. Cultures were also photographed (CANON REBEL digital camera). Statistical significance of the values was calculated using paired t-test and threshold statistical significance was fixed at p=0.05 and 15% difference as compare to the water control group. Cell numbers were measured using a sulforhodamine B method (described by Skehan et al, “New colorimetric cytotoxicity assay for anticancer-drug screening”, J. Natl Cancer Inst., 82:1107, 1990, the relevant disclosures of which are incorporated herein by reference). The colorimetric signal proportional to cell numbers was acquired with the microplate spectrophotometer 3550-UV at 550 nanometers.
Following the general procedure of Study I, a further set of dilute aqueous stock solutions was prepared containing each component individually (Compositions 6M-O in Table 10). A stock solution containing a combinations of each component was prepared from the stock solutions of each component (Composition 6P in Table 10) to provide amounts representing the weight ratio of each component to one another present in a composition of Example 1-B as shown below in Note 1 to Table 10. For comparison, a dilute stock solution of hydroquinone (Composition 6Q) was included. A 20-fold (20×) dilution (distilled water) of each stock solution was selected for the in vitro test to minimize or avoid cytotoxicity of melanocytes in the cell growth medium.
(§2) The methodology of Study I was repeated, except that the test was terminated after 72 hours for quantifying melanin pigmentation.

B16 melanocytes [2] = assay: Cell numbers by sulforhodamine B method, Study I; details: 20X dilution of stock solutions; 48 hours incubation
Protocol: (§3) One set of aqueous stock solutions was prepared containing each component individually (as supplied) in an amount representing the active concentration present in a composition of Example 1-B (Compositions 6A-C in Table 9). A corresponding second and third set of stock solutions was prepared, respectively containing two-times (Compositions 6E-G in Table 9) and four-times (Compositions I-K in Table 9) the amount of the foregoing concentrations. Combinations of each component were prepared from the stock solutions of each component (Compositions. 6D, 6H, and 6L in Table 9) to provide amounts representing the weight ratio of each component to one another present (active basis) in a composition of Example 1-B as shown below in Notes 1-3 of Table 9. A 20-fold (20×) dilution (distilled water) of each stock solution was selected for the in vitro test to minimize or avoid cytotoxicity of melanocytes in the cell growth medium.
as §1

B16 melanocytes [3] = assay: Melanin production/secretion in melanocytes, Study II; details: 20X dilution of dilute stock solutions; 72 hours
Protocol: as §1
Following the general procedure of Study I, a further set of dilute aqueous stock solutions was prepared containing each component individually (Compositions 6M-O in Table 10). […] For comparison, a dilute stock solution of hydroquinone (Composition 6Q) was included. A 20-fold (20×) dilution (distilled water) of each stock solution was selected for the in vitro test to minimize or avoid cytotoxicity of melanocytes in the cell growth medium.
Distilled water was used as the negative control. As a positive control for validating the test, a dilute stock solutions of kojic acid (0.2%, 0.04%) were prepared and a 20× dilution (0.01%, 0.002%) tested.
as §2

B16 melanocytes [4] = assay: Melanin production/secretion in melanocytes, Study I; details: 48 hours incubation; for effect on pigmentation / inhibition of melanin production/secretion: 20X dilution of stock solutions
Protocol: This example illustrates the synergistic efficacy of the combination of the complexion modifying components (a) 4-hexylresorcinol, (b) niacinamide and (c) 1-amino-ethylphosphinic acid, compared to the effect of the individual components, based on an in vitro evaluation of melanin production/secretion in melanocytes. Components (a), (b) and (c) were evaluated individually and in combination with one another as described below in Studies I and II, and in Tables 9 and 10.
as §3
Component (c) as supplied is described in Note (a) to Table 2. As a positive control, stock solutions of kojic acid solutions were prepared at an active concentration of 2%, 0.5% and 0.1% to provide a concentration of 0.1%, 0.025% and 0.005%, respectively, at a 20× dilution. Distilled water was used as the negative control.
as §1

Row | Structure (SMILES) | effect on cell numbers / cytotoxicity (B16 melanocytes [1]) | effect on cell numbers / cytotoxicity (B16 melanocytes [2]) | inhibitory effect on pigmentation (B16 melanocytes [3]) | effect on pigmentation / inhibition of melanin production/secretion (B16 melanocytes [4]) | inhibition of melanin production/secretion (B16 melanocytes [3]) | pigmentation expressed as % (water control 100%) (B16 melanocytes [4]; 20X dilution)
1 | CC(N)[PH](=O)O (stereo not shown) [1-amino-ethylphosphinic acid] | no inhibitory effect | no effect | no inhibitory effect | no effect | – | –
2 | CCCCCCc1ccc(O)cc1O [4-hexylresorcinol] | cytotoxic | cytotoxic or cytostatic | – | – | – | –
3 | Oc1ccc(O)cc1 [hydroquinone] | – | – | – | – | ≥ 50% | –
4 | O=c1cc(CO)occ1O [kojic acid] | without significantly impacting cell proliferation | without significantly impacting cell proliferation | – | dose-dependent pigmentation-inhibitory effect | about 73% | 70-90%
5 | NC(=O)c1cccnc1 [niacinamide] | no inhibitory effect | no effect | no inhibitory effect | no effect | – | –
